Data on 7 compounds can be found in ChEMBL document CHEMBL3856190, “Novel spirothiazamenthane inhibitors of the influenza A M2 proton channel” (Eur J Med Chem, 2016).

The structures appear in SMILES notation. Calls of active or inactive are those of the source. The rule behind the calls is not given here.

In assay [1] the test system is MDCK. In words: Antiviral activity against amantadine-resistant Influenza A virus A/Puerto Rico/8/34 expressing M2 proton channel S31N mutant infected in MDCK cells assessed as inhibition of viral replication at 0.001 to 100 uM measured after 10 hrs by miniplaque assay. The class given is functional, cell-based. Particulars: Influenza A virus (A/Puerto Rico/8/1934(H1N1)).

Assay [2] relates to MDCK. The assay is described as follows: Antiviral activity against amantadine-resistant Influenza A virus A/Puerto Rico/8/34 expressing M2 proton channel V27A mutant infected in MDCK cells assessed as inhibition of viral replication at 100 uM measured after 10 hrs by miniplaque assay. Particulars: Influenza A virus (A/Puerto Rico/8/1934(H1N1)). Format: functional, cell-based.

For `CN1CCN(CCNC2=NC(C)(C)[C@]3(CC[C@H](C)CC3)S2)CC1`, the inhibition result in the assay with MDCK [1] is “Active”.

With `CN(C)CCN1CCN(CCNC2=NC(C)(C)[C@]3(CC[C@H](C)CC3)S2)CC1`, in the assay on MDCK [1], the inhibition entry was “Active”.

Turning to `CCCCN1CCN(CCNC2=NC(C)(C)[C@]3(CC[C@H](C)CC3)S2)CC1`, the inhibition entry with MDCK [1] and with MDCK [2] was “Active” each time.

For `CCCCCCCCN1CCN(CCNC2=NC(C)(C)[C@]3(CC[C@H](C)CC3)S2)CC1`, the inhibition result with MDCK [1] is “Active”.

On to `CCOCCN1CCN(CCNC2=NC(C)(C)[C@]3(CC[C@H](C)CC3)S2)CC1`, for which the inhibition entry in the assay with MDCK [1] and in the assay with MDCK [2] was “Active” in each case.

Take `CC(C)CCN1CCN(CCNC2=NC(C)(C)[C@]3(CC[C@H](C)CC3)S2)CC1`: the inhibition entry with MDCK [1] and with MDCK [2] was “Active” throughout.

Take `CC1(C)N=C(NCCN2CCN(Cc3ccccc3)CC2)S[C@]12CC[C@@H](C)CC2`: the inhibition result in the assay on MDCK [1] and with MDCK [2] was “Active” throughout.
